Data: ChEMBL document CHEMBL1152560, “Substituted 2-arylbenzothiazoles as kinase inhibitors: hit-to-lead optimization” (Bioorg Med Chem, 2009)

Experiments:
[1] = molecular target: Ephrin type-A receptor 5 (Homo sapiens) (UniProt P54756); assay: Residual activity of EPHA5 at 0.1 uM by microplate scintillation counting
[2] = molecular target: T1, Interleukin-1 receptor-associated kinase 4 (Homo sapiens) (UniProt Q9NWZ3); assay: Residual activity of IRAK4 at 0.1 uM by microplate scintillation counting
T1 sequence (whole entry): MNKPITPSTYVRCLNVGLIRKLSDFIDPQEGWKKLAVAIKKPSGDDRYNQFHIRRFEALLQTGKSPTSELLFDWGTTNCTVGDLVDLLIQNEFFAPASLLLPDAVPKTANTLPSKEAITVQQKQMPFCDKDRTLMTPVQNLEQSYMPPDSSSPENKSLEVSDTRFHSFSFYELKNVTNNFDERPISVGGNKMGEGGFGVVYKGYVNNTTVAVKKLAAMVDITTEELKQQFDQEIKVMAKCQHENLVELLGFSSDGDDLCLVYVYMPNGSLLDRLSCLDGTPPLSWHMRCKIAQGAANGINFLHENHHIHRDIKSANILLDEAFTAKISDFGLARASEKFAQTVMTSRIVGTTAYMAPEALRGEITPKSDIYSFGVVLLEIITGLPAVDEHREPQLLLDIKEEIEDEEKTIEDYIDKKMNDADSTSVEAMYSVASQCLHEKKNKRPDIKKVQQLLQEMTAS

[3] = molecular target: T2, Serine/threonine-protein kinase BRSK1 (Homo sapiens) (UniProt Q8TDC3); assay: Residual activity of BRSK1 at 0.1 uM by microplate scintillation counting
T2 sequence (whole entry): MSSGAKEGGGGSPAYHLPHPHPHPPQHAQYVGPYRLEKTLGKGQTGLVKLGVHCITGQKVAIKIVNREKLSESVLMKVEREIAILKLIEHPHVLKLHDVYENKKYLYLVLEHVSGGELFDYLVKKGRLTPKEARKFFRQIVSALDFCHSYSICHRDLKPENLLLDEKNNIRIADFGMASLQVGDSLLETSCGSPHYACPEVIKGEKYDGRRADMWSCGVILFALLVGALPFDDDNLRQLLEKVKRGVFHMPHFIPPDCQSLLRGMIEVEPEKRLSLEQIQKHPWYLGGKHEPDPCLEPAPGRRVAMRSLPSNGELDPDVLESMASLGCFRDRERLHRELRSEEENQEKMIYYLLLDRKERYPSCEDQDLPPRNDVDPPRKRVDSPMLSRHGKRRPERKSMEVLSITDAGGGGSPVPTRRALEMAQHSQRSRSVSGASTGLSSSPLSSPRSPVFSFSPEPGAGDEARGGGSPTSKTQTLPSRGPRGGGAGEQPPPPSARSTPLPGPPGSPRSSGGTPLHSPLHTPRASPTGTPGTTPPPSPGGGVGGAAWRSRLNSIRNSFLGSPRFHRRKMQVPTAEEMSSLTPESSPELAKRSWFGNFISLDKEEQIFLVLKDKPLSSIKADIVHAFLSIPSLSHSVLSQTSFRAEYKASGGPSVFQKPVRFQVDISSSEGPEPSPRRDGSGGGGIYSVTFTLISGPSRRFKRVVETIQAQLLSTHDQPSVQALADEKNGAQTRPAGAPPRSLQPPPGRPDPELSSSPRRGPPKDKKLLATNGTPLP

[4] = molecular target: Ribosomal protein S6 kinase alpha-3 (Homo sapiens) (UniProt P51812); assay: Residual activity of RPS6KA3 at 0.1 uM by microplate scintillation counting
[5] = molecular target: CDK8/Cyclin C (Homo sapiens) (UniProt P49336+P24863); assay: Residual activity of CDK8/Cyclin C at 1 uM by microplate scintillation counting; format: protein-complex assay
[6] = molecular target: Cyclin-dependent kinase 5/CDK5 activator 1 (Homo sapiens) (UniProt Q00535+Q15078); assay: Residual activity of CDK5/p25NCK at 0.1 uM by microplate scintillation counting; format: protein-complex assay
Chain of Cyclin-dependent kinase 5/CDK5 activator 1 (Homo sapiens) (Q00535 whole entry): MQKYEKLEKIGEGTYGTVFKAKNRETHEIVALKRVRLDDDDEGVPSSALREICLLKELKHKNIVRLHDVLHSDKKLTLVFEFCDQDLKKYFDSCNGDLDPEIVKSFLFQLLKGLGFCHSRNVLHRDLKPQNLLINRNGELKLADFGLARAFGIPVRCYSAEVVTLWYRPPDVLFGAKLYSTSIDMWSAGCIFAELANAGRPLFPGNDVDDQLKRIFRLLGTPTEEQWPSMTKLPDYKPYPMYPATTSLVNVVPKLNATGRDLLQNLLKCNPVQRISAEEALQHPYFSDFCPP
Chain of Cyclin-dependent kinase 5/CDK5 activator 1 (Homo sapiens) (Q15078 99-307 partner limits assumed): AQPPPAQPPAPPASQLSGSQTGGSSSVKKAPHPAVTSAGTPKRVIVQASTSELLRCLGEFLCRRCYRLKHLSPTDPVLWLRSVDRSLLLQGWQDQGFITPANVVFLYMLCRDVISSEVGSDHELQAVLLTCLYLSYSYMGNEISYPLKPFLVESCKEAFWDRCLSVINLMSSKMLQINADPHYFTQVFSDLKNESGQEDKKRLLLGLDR

[7] = molecular target: T3, Serine/threonine-protein kinase 4 (Homo sapiens) (UniProt Q13043); assay: Residual activity of MST1 at 1 uM by microplate scintillation counting
T3 sequence (whole entry): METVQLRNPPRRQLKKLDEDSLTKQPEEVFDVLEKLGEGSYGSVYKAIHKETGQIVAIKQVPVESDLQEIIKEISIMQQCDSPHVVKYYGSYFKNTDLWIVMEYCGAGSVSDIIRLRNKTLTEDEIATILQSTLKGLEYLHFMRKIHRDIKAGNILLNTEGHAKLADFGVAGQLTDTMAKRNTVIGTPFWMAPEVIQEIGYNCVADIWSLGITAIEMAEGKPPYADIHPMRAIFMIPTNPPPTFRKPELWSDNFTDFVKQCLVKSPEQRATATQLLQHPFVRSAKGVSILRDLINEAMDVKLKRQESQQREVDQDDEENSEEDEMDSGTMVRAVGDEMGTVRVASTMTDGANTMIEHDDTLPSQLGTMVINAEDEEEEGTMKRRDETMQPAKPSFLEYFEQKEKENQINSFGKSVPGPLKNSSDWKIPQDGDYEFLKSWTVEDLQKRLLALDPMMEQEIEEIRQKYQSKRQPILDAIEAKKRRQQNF

[8] = molecular target: 5'-AMP-activated protein kinase catalytic subunit alpha-1 (Homo sapiens) (UniProt Q13131); assay: Residual activity of AMPK-alpha1 fl at 1 uM by microplate scintillation counting
Chain of 5'-AMP-activated protein kinase catalytic subunit alpha-1 (Homo sapiens) (Q13131 whole entry, looked up): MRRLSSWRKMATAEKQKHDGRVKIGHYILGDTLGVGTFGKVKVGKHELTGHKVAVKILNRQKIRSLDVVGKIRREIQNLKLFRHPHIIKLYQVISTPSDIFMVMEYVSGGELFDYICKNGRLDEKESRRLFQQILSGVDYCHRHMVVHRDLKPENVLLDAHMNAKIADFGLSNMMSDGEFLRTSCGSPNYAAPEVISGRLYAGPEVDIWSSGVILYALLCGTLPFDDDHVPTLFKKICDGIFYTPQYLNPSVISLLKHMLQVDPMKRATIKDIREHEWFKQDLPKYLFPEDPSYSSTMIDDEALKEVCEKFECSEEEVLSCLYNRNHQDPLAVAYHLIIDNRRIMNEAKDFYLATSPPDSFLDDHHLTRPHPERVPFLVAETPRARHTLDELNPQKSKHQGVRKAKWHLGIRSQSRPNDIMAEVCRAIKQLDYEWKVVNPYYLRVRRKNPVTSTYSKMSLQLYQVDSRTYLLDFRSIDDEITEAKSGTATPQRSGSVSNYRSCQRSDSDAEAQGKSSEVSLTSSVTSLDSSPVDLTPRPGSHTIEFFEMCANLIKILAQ

[9] = molecular target: Myosin light chain kinase 2, skeletal/cardiac muscle (Homo sapiens) (UniProt Q9H1R3); assay: Residual activity of MYLK2 at 10 uM by microplate scintillation counting
Chain of Myosin light chain kinase 2, skeletal/cardiac muscle (Homo sapiens) (Q9H1R3 whole entry): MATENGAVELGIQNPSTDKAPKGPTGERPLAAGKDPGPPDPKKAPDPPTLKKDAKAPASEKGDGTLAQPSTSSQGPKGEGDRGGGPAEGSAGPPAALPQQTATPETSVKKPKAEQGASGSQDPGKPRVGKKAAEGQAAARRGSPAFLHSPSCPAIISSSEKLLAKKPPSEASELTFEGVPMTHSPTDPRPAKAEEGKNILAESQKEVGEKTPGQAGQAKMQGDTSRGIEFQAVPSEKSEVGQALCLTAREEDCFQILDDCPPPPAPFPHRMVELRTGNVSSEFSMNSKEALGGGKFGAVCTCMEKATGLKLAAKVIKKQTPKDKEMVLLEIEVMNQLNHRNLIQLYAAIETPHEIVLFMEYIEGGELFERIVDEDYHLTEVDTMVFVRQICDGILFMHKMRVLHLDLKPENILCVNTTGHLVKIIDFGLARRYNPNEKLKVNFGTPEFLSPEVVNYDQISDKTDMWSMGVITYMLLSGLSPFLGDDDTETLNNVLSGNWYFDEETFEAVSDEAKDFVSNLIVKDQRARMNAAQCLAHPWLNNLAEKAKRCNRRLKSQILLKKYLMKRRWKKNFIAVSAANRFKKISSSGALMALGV

[10] = molecular target: Epidermal growth factor receptor (Homo sapiens, UniProt P00533); assay: Inhibition of wild type EGF-R by microplate scintillation counting
Chain of Epidermal growth factor receptor (P00533 whole entry): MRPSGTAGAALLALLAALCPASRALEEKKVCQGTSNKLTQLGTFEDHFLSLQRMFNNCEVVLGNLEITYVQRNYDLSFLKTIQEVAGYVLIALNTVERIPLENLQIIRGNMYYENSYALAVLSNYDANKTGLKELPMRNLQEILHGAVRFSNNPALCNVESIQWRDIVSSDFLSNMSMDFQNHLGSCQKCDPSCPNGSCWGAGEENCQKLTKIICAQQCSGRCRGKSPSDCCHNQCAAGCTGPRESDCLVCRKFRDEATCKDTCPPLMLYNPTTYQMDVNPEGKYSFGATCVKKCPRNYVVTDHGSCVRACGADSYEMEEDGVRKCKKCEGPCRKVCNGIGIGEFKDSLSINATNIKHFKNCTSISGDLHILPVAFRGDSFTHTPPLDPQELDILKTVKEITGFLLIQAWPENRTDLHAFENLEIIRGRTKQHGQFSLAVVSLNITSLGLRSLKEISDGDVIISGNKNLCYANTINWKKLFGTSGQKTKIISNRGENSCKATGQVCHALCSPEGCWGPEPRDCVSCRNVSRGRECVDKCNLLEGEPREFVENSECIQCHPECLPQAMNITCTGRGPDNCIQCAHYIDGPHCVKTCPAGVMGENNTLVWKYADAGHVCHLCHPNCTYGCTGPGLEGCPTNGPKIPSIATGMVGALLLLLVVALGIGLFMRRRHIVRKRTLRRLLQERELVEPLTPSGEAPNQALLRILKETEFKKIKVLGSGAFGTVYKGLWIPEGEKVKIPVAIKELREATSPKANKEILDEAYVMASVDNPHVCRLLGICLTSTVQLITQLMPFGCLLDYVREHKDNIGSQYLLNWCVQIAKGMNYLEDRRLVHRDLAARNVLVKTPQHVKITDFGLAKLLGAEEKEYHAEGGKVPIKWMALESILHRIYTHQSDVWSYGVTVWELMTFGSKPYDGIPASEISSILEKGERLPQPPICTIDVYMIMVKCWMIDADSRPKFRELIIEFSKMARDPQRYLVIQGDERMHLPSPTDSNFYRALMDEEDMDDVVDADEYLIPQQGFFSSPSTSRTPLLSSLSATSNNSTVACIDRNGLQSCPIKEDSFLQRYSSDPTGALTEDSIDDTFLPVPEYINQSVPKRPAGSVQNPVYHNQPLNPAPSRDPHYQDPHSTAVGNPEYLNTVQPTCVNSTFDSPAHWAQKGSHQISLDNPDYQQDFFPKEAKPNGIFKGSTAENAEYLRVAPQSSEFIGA

[11] = molecular target: T4, Testis-specific serine/threonine-protein kinase 2 (Homo sapiens) (UniProt Q96PF2); assay: Residual activity of TSK2 at 10 uM by microplate scintillation counting
T4 sequence (whole entry): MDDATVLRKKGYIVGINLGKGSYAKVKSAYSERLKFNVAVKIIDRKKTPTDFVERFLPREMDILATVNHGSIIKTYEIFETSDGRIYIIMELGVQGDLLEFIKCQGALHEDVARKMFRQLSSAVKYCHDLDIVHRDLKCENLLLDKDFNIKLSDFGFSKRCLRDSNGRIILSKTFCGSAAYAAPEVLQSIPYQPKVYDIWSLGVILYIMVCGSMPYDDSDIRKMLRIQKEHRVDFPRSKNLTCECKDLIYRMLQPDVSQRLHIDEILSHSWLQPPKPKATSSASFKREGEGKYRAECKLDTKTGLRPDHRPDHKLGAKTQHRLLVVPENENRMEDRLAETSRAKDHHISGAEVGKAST

[12] = tested on: Tyrosine-protein kinase ABL1 (Homo sapiens), P00519 [T315I]; assay: Residual activity of ABL1 T315I mutant at 0.1 uM by microplate scintillation counting
[13] = Residual activity of PKA at 1 uM by microplate scintillation counting
[14] = molecular target: Serine/threonine-protein kinase PAK 4 (Homo sapiens) (UniProt O96013); assay: Residual activity of PAK4 at 1 uM by microplate scintillation counting
Chain of Serine/threonine-protein kinase PAK 4 (Homo sapiens) (O96013 whole entry, looked up): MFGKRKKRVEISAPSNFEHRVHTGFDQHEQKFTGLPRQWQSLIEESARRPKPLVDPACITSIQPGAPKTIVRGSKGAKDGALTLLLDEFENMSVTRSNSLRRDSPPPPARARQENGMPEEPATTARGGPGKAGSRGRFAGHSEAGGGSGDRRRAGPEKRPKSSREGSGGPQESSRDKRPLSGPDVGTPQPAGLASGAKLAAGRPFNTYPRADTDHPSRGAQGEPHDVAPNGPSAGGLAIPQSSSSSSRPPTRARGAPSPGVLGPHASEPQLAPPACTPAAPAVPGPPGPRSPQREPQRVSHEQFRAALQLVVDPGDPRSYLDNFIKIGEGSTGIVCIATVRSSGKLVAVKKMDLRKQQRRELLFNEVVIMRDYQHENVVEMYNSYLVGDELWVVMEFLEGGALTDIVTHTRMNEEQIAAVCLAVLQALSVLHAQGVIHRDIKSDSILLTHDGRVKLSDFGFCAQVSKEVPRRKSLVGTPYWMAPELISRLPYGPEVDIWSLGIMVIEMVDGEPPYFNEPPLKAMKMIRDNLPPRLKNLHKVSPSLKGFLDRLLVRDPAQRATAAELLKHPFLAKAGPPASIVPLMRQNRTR

[15] = molecular target: Mitogen-activated protein kinase 8 (Homo sapiens) (UniProt P45983); assay: Residual activity of JNK1 at 0.1 uM by microplate scintillation counting
Chain of Mitogen-activated protein kinase 8 (Homo sapiens) (P45983 whole entry): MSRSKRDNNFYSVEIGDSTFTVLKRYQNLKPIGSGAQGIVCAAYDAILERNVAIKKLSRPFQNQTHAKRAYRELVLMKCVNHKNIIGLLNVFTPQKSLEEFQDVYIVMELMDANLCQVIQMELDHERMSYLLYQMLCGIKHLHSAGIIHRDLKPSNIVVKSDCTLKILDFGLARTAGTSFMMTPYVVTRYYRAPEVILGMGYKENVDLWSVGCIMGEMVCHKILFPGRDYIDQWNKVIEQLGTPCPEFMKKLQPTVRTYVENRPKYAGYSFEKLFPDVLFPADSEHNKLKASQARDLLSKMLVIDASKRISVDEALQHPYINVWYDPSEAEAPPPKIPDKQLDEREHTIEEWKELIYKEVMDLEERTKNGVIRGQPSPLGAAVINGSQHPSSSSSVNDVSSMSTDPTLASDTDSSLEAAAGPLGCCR

Chain of Ephrin type-A receptor 5 (Homo sapiens) (P54756 whole entry): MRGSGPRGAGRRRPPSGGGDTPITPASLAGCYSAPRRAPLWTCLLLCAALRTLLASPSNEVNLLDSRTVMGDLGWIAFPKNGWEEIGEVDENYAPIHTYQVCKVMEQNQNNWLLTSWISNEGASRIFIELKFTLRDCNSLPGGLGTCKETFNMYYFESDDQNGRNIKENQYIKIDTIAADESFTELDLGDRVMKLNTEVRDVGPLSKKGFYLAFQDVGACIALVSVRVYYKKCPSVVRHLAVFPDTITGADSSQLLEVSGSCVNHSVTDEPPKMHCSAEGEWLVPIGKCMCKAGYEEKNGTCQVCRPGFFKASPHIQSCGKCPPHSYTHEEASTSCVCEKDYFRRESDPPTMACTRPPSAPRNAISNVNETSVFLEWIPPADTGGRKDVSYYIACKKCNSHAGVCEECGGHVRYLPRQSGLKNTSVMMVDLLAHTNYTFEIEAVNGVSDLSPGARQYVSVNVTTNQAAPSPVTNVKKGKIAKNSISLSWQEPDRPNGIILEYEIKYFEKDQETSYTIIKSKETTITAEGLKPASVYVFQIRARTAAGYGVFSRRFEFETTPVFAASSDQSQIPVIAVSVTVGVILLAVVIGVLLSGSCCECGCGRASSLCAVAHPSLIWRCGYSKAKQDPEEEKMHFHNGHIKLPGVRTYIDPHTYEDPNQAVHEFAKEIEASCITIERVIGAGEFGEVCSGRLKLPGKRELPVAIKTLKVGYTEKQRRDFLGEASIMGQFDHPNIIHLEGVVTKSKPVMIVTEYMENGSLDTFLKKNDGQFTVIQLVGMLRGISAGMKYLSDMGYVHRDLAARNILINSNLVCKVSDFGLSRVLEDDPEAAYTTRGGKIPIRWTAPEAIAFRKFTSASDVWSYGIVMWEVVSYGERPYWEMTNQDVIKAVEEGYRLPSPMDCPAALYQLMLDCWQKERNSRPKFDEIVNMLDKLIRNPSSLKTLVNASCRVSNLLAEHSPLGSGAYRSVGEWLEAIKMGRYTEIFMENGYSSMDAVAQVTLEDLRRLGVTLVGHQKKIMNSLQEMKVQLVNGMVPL

residual activity [1] [%] | residual activity [2] [%] | residual activity [3] [%] | residual activity [4] [%] | residual activity [5] [%] | residual activity [6] [%] | residual activity [7] [%] | residual activity [8] [%] | residual activity [9] [%] | IC50 [10] [µM] | residual activity [11] [%] | residual activity [12] [%] | residual activity [13] [%] | residual activity [14] [%] | residual activity [15] [%] | SMILES
103 | 96 | 94 | 94 | 95 | 90 | 81 | 91 | 82 | > 10 | 110 | 98 | 96 | 112 | 106 | COc1cc2c(Oc3ccc(-c4nc5ccccc5s4)cc3)ncnc2cc1OCCCN1CCCC1
81 | 100 | 95 | 93 | 79 | 78 | 87 | 76 | 115 | > 10 | 109 | 96 | 106 | 105 | 98 | COc1cc2c(Oc3ccc(-c4nc5ccccc5s4)cc3)ncnc2cc1OCCCN1CCN(C)CC1
97 | 101 | 85 | 95 | 81 | 87 | 101 | 77 | 117 | > 10 | 111 | 100 | 103 | 99 | 101 | COc1cc2c(Oc3ccc(-c4nc5ccccc5s4)cc3F)ncnc2cc1OCCCN1CCN(C)CC1
